# Experimental data taken from patent US20240208933A1, “CRYSTALLINE INHIBITORS OF CYSTEINE PROTEASES AND METHODS OF USE THEREOF” (priority 2021, published 2024).
# Where two headings read alike, the source gives them in different places.
# Tests used:
# [1] = Dynamic vapor sorption (DVS) analysis; type: physicochemical
# [2] = Approximate solubility determined by visual observation; type: physicochemical; settings: organic solvent or mixture
# Experimental: Approximate solubility was determined by visual observation and shown in Form C Table 8.
# Approximate solubility was determined by visual observation and shown in Form F Table 12.
Compound,DVS reversible total mass change ([1]; from about 90% to about 0% RH),DVS gain ([1]; to about 90% relative humidity (RH) at 25° C.),"solubility ([2]; acetone, solvent Acetone, read-out: Solubility of Form C) [mg/mL]","solubility ([2]; ethanol, solvent Ethanol, read-out: Solubility of Form C) [mg/mL]","solubility ([2]; methanol, solvent Methanol, read-out: Solubility of Form C) [mg/mL]","solubility ([2]; methanol/dichloromethane (1/1), solvent Methanol/Dichloromethane (1/1), read-out: Solubility of Form C) [mg/mL]","solubility ([2]; methanol/dichloromethane (1/2), solvent Methanol/Dichloromethane (1/2), read-out: Solubility of Form C) [mg/mL]","solubility ([2]; methanol/dichloromethane (2/1), solvent Methanol/Dichloromethane (2/1), read-out: Solubility of Form C) [mg/mL]","DVS reversable gain ([1]; from about 0 to about 90% relative humidity (RH), no hysteresis)","solubility ([2]; acetone, solvent Acetone, read-out: Solubility of Form F) [mg/mL]","solubility ([2]; ethanol, solvent Ethanol, read-out: Solubility of Form F) [mg/mL]","solubility ([2]; methanol, solvent Methanol, read-out: Solubility of Form F) [mg/mL]","solubility ([2]; methanol/dichloromethane (1/1), solvent Methanol/Dichloromethane (1/1), read-out: Solubility of Form F) [mg/mL]","solubility ([2]; methanol/dichloromethane (1/2), solvent Methanol/Dichloromethane (1/2), read-out: Solubility of Form F) [mg/mL]","solubility ([2]; methanol/dichloromethane (2/1), solvent Methanol/Dichloromethane (2/1), read-out: Solubility of Form F) [mg/mL]"
"N#C[C@H](C[C@@H]1CCCNC1=O)NC(=O)[C@H](CC1CC1)NC(=O)c1cc2cccc(Cl)c2[nH]1 [Form C, 7-chloro-N—((S)-1-(((S)-1-cyano-2-((S)-2-oxopiperidin-3-yl)ethyl)amino)-3-cyclopropyl-1-oxopropan-2-yl)-1H-indole-2-carboxamide, anhydrate]",about 0.7%,about 0.5%,< 2,> 2,> 9,> 23,> 28,> 16,–,–,–,–,–,–,–
"N#C[C@H](C[C@@H]1CCCNC1=O)NC(=O)[C@H](CC1CC1)NC(=O)c1cc2cccc(Cl)c2[nH]1 [Form F, 7-chloro-N—((S)-1-(((S)-1-cyano-2-((S)-2-oxopiperidin-3-yl)ethyl)amino)-3-cyclopropyl-1-oxopropan-2-yl)-1H-indole-2-carboxamide, hydrate]",–,–,–,–,–,–,–,–,about 4 wt. %,< 2,> 7,> 11,> 47,> 58,> 19
